Measured values as given in patent publication US9328138B2 (priority 2011, dated 2016).
Where a name gives a salt, the structure may show the parent alone.

What was measured:
[1] = target: T1, HCV genotype 1b (BK) NS3 modified enzyme with a R155K mutation (Hepatitis C virus genotype 1b, UniProt P26663, R1181K); experiment: HCV NS3 protease time-resolved fluorescence (TRF) assay, genotype 1b R155K; format: biochemical; settings: Ki 1b R155K
T1 construct: HCV genotype 1b (BK) NS3 modified enzyme
Method in brief: (§1)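 Assay buffer: 50 mM HEPES pH 7.5, 150 mM NaCl, 0.1% PEG 8000, 0.15% Triton X-100. Ten-minute enzyme–inhibitor preincubation; substrate at 25 nM final; 6 h reaction, room temperature; signal/background set at 5-20 by enzyme amount.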

[2] = target: HCV NS3 protease genotype 3a (3A-1) (Hepatitis C virus genotype 3a, UniProt Q81258); experiment: HCV NS3 protease time-resolved fluorescence (TRF) assay, genotype 3a; format: biochemical; settings: Ki 3a
Method in brief: as §1

[3] = genotype 1b (BK) NS3 R155K, single value
[4] = first of two values printed in the cell (not explained)
[5] = second of two values printed in the cell (not explained)

Compound	Ki [1, 3] [nM]	Ki [2] [nM]	Ki [1, 4] [nM]	Ki [1, 5] [nM]
C=C[C@@H]1C[C@]1(NC(=O)[C@@H]1C[C@@H]2CN1C(=O)[C@H](C1CCCCC1)NC(=O)O[C@@H]1C[C@H]1CCCCCc1c(nc3ccccc3c1OCCN1CCOCC1)O2)C(=O)NS(=O)(=O)C1(C)CC1 [Example 122, (1aR,5S,8S,10R,22aR)-5-cyclohexyl-N-[(1R,2S)-2-ethenyl-1-{[(1-methylcyclopropyl)sulfonyl]carbamoyl}cyclopropyl]-17-[2-(morpholin-4-yl)ethoxy]-3,6-dioxo-1,1,a,3,4,5,6,9,10,18,19,20,21, 22,22a-tetradecahydro-8H-7,10-methanocyclopropa[18,19][1,10,3,6] dioxadiazacyclononadecino [11,12-b]quinoline-8-carboxamide]	0.33	8.8	–	–
C=C[C@@H]1C[C@]1(NC(=O)[C@@H]1C[C@@H]2CN1C(=O)[C@H](C(C)(C)C)NC(=O)O[C@H]1C[C@@H]1CCCCCc1c(nc3ccncc3c1OC1CCN(C)CC1)O2)C(=O)NS(=O)(=O)C1(C)CC1 [Example 295, (1aS,5S,8S,10R,22aS)-5-tert-butyl-N-{(1R,2S)-2-ethenyl-1-[(1-methylcyclopropanesulfonamido)carbonyl]cyclopropyl}-17-[(1-methylpiperidin-4-yl)oxy]-3,6-dioxo-1,1a,3,4,5,6,9,10,18,19,20,21,22,22a-tetradecahydro-8H-7,10-methanocyclopropa[18,19][1,10,3,6]dioxadiazacyclononadecino[11,12-b][1,6]naphthyridine-8-carboxamide]	0.082	1.07	–	–
C=C[C@@H]1C[C@]1(NC(=O)[C@@H]1C[C@@H]2CN1C(=O)[C@H](C(C)(C)C)NC(=O)O[C@@H]1C[C@H]1CCCCCc1c(nc3ccccc3c1OC1CC3CCC(C1)N3)O2)C(=O)NS(=O)(=O)C1(C)CC1 (single isomer, unassigned) [Example 279, trifluoroacetate]	–	2.6	0.012	0.145
C=C[C@@H]1C[C@]1(NC(=O)[C@@H]1C[C@@H]2CN1C(=O)[C@H](C(C)(C)C)NC(=O)O[C@@H]1C[C@H]1CCCCCc1c(nc3cc(C(C)C)ccc3c1OCCCN1C[C@@H]3C[C@H]1CO3)O2)C(=O)NS(=O)(=O)C1(C)CC1 [Example 164, (1aR,5S,8S,10R,22aR)-5-tert-butyl-N-[(1R,2S)-2-ethenyl-1-{[(1-methylcyclopropyl)sulfonyl]carbamoyl}cyclopropyl]-17-{3-[(1S,4S)-2-oxa-5-azabicyclo[2.2.1]hept-5-yl]propoxy}-3,6-dioxo-14-(propan-2-yl)-1,1a,3,4,5,6,9,10,18,19,20, 21,22,22a-tetradecahydro-8H-7,10-methanocyclopropa[18,19][1,10,3,6] dioxadiazacyclononadecino [11,12-b]quinoline-8-carboxamide]	0.096	1.2	–	–
C=C[C@@H]1C[C@]1(NC(=O)[C@@H]1C[C@@H]2CN1C(=O)[C@H](C1(C)CCCCC1)NC(=O)O[C@@H]1C[C@H]1CCCCCc1c(nc3ccccc3c1OC1CC3CCC(C1)N3C)O2)C(=O)NS(=O)(=O)C1(C)CC1 (stereo partly drawn) [Example 263, (1aR,5S,8S,10R,22aR)—N-[(1R,2S)-2-ethenyl-1-{[(1-methylcyclopropyl)sulfonyl]carbamoyl}cyclopropyl]-17-[(8-methyl-8-azabicyclo[3.2.1]oct-3-yl)oxy]-5-(1-methylcyclohexyl)-3,6-dioxo-1,1a,3,4,5,6,9,10,18,19,20,21,22,22a-tetradecahydro-8H-7,10-methanocyclopropa[18,19][1,10,3,6]dioxadiazacyclononadecino[11,12-b]quinoline-8-carboxamide]	–	0.041	0.006	0.011
